Data: patent US9113629B2, “4-amino-6-(4-substituted-phenyl)-picolinates and 6-amino-2-(4-substituted-phenyl)-pyrimidine-4-carboxylates and their use as herbicides” (DOW AGROSCIENCES LLC, priority 2013, dated 2015)

Tested on: not given
Test: not given
Conditions: not given

melting point [°C] | Compound
159.6 to 161.1 | COC(=O)c1nc(-c2ccc(Br)cc2)c(Cl)c(N)c1Cl [Compound 47]

Tested on: Key Broadleaf Weed and Crop Species
Test: Post-emergent Test II herbicidal activity (Table 5)
Assay type: in vivo
Conditions: post-emergence, 336 h; ABUTH: velvetleaf (Abutilon theophrasti); 70 g ai/ha; post-emergent; 14 days after application; read-out: Visual Growth Reduction (%) 14 Days After Application ABUTH
Outline: (§1)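 Greenhouse post-emergent assay: seedlings (first/second true leaf) in Metro-Mix 360 were sprayed at 187 L/ha at a top rate plus twofold dilutions down to 1/16×; solvent-blank controls were included. Percent visual injury was read at 14 d.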

Compound | pest or weed control at 70 g/ha [%]
COC(=O)c1nc(-c2ccc(Br)cc2)c(Cl)c(N)c1Cl [Compound 47] | 95 to 100

Same assay, conditions: post-emergence, 336 h; ABUTH: velvetleaf (Abutilon theophrasti); 140 g ai/ha; post-emergent; 14 days after application; read-out: Visual Growth Reduction (%) 14 Days After Application ABUTH

Compound | pest or weed control at 140 g/ha [%]
COC(=O)c1nc(-c2ccc(Br)cc2)c(Cl)c(N)c1Cl [Compound 47] | 95 to 100

Same assay, conditions: post-emergence, 336 h; AMARE: redroot pigweed (Amaranthus retroflexus); 70 g ai/ha; post-emergent; 14 days after application; read-out: Visual Growth Reduction (%) 14 Days After Application AMARE

Compound | pest or weed control at 70 g/ha [%]
COC(=O)c1nc(-c2ccc(Br)cc2)c(Cl)c(N)c1Cl [Compound 47] | 95 to 100

Same assay, conditions: post-emergence, 336 h; AMARE: redroot pigweed (Amaranthus retroflexus); 140 g ai/ha; post-emergent; 14 days after application; read-out: Visual Growth Reduction (%) 14 Days After Application AMARE

Compound | pest or weed control at 140 g/ha [%]
COC(=O)c1nc(-c2ccc(Br)cc2)c(Cl)c(N)c1Cl [Compound 47] | 95 to 100

Same assay, conditions: post-emergence, 336 h; BRSNN: oilseed-rape, canola (Brassica napus); 70 g ai/ha; post-emergent; 14 days after application; read-out: Visual Growth Reduction (%) 14 Days After Application BRSNN

Compound | pest or weed control at 70 g/ha [%]
COC(=O)c1nc(-c2ccc(Br)cc2)c(Cl)c(N)c1Cl [Compound 47] | 95 to 100

Same assay, conditions: post-emergence, 336 h; BRSNN: oilseed-rape, canola (Brassica napus); 140 g ai/ha; post-emergent; 14 days after application; read-out: Visual Growth Reduction (%) 14 Days After Application BRSNN

Compound | pest or weed control at 140 g/ha [%]
COC(=O)c1nc(-c2ccc(Br)cc2)c(Cl)c(N)c1Cl [Compound 47] | 95 to 100

Same assay, conditions: post-emergence, 336 h; CHEAL: lambsquarters (Chenopodium album); 70 g ai/ha; post-emergent; 14 days after application; read-out: Visual Growth Reduction (%) 14 Days After Application CHEAL

Compound | pest or weed control at 70 g/ha [%]
COC(=O)c1nc(-c2ccc(Br)cc2)c(Cl)c(N)c1Cl [Compound 47] | 95 to 100

Same assay, conditions: post-emergence, 336 h; CHEAL: lambsquarters (Chenopodium album); 140 g ai/ha; post-emergent; 14 days after application; read-out: Visual Growth Reduction (%) 14 Days After Application CHEAL

Compound | pest or weed control at 140 g/ha [%]
COC(=O)c1nc(-c2ccc(Br)cc2)c(Cl)c(N)c1Cl [Compound 47] | 95 to 100

Same assay, conditions: post-emergence, 336 h; EPHHL: wild poinsettia (Euphorbia heterophylla); 70 g ai/ha; post-emergent; 14 days after application; read-out: Visual Growth Reduction (%) 14 Days After Application EPHHL

Compound | pest or weed control at 70 g/ha [%]
COC(=O)c1nc(-c2ccc(Br)cc2)c(Cl)c(N)c1Cl [Compound 47] | 85 to 94

Same assay, conditions: post-emergence, 336 h; EPHHL: wild poinsettia (Euphorbia heterophylla); 140 g ai/ha; post-emergent; 14 days after application; read-out: Visual Growth Reduction (%) 14 Days After Application EPHHL

Compound | pest or weed control at 140 g/ha [%]
COC(=O)c1nc(-c2ccc(Br)cc2)c(Cl)c(N)c1Cl [Compound 47] | 95 to 100

Same assay, conditions: post-emergence, 336 h; HELAN: sunflower (Helianthus annuus); 70 g ai/ha; post-emergent; 14 days after application; read-out: Visual Growth Reduction (%) 14 Days After Application HELAN

Compound | pest or weed control at 70 g/ha [%]
COC(=O)c1nc(-c2ccc(Br)cc2)c(Cl)c(N)c1Cl [Compound 47] | 95 to 100

Same assay, conditions: post-emergence, 336 h; HELAN: sunflower (Helianthus annuus); 140 g ai/ha; post-emergent; 14 days after application; read-out: Visual Growth Reduction (%) 14 Days After Application HELAN

Compound | pest or weed control at 140 g/ha [%]
COC(=O)c1nc(-c2ccc(Br)cc2)c(Cl)c(N)c1Cl [Compound 47] | 95 to 100

Same assay, conditions: post-emergence, 336 h; VIOTR: wild pansy (Viola tricolor); 70 g ai/ha; post-emergent; 14 days after application; read-out: Visual Growth Reduction (%) 14 Days After Application VIOTR

Compound | pest or weed control at 70 g/ha [%]
COC(=O)c1nc(-c2ccc(Br)cc2)c(Cl)c(N)c1Cl [Compound 47] | 0 to 29

Same assay, conditions: post-emergence, 336 h; VIOTR: wild pansy (Viola tricolor); 140 g ai/ha; post-emergent; 14 days after application; read-out: Visual Growth Reduction (%) 14 Days After Application VIOTR

Compound | pest or weed control at 140 g/ha [%]
COC(=O)c1nc(-c2ccc(Br)cc2)c(Cl)c(N)c1Cl [Compound 47] | 0 to 29

Tested on: Key Grass and Sedge Weeds as well as Grass Crops
Test: Post-emergent Test II herbicidal activity (Table 6)
Assay type: in vivo
Conditions: Triticum aestivum, post-emergence, 336 h, TRZSS (wheat), application rate 70 g ai/ha, read-out: Visual Growth Reduction (%) 14 Days After Application, TRZSS
Outline: as §1

Compound | pest or weed control at 70 g/ha [%]
COC(=O)c1nc(-c2ccc(Br)cc2)c(Cl)c(N)c1Cl [Compound 47] | 45 to 59

Same assay, conditions: Triticum aestivum, post-emergence, 336 h, TRZSS (wheat), application rate 140 g ai/ha, read-out: Visual Growth Reduction (%) 14 Days After Application, TRZSS

Compound | pest or weed control at 140 g/ha [%]
COC(=O)c1nc(-c2ccc(Br)cc2)c(Cl)c(N)c1Cl [Compound 47] | 45 to 59

Same assay, conditions: post-emergence, 336 h, CYPES: yellow nutsedge (Cyperus esculentus), application rate 70 g ai/ha, read-out: Visual Growth Reduction (%) 14 Days After Application, CYPES

Compound | pest or weed control at 70 g/ha [%]
COC(=O)c1nc(-c2ccc(Br)cc2)c(Cl)c(N)c1Cl [Compound 47] | 85 to 94

Same assay, conditions: post-emergence, 336 h, CYPES: yellow nutsedge (Cyperus esculentus), application rate 140 g ai/ha, read-out: Visual Growth Reduction (%) 14 Days After Application, CYPES

Compound | pest or weed control at 140 g/ha [%]
COC(=O)c1nc(-c2ccc(Br)cc2)c(Cl)c(N)c1Cl [Compound 47] | 95 to 100

Same assay, conditions: post-emergence, 336 h, DIGSA: crabgrass (Digitaria sanguinalis), application rate 70 g ai/ha, read-out: Visual Growth Reduction (%) 14 Days After Application, DIGSA

Compound | pest or weed control at 70 g/ha [%]
COC(=O)c1nc(-c2ccc(Br)cc2)c(Cl)c(N)c1Cl [Compound 47] | 75 to 84

Same assay, conditions: post-emergence, 336 h, DIGSA: crabgrass (Digitaria sanguinalis), application rate 140 g ai/ha, read-out: Visual Growth Reduction (%) 14 Days After Application, DIGSA

Compound | pest or weed control at 140 g/ha [%]
COC(=O)c1nc(-c2ccc(Br)cc2)c(Cl)c(N)c1Cl [Compound 47] | 75 to 84

Same assay, conditions: post-emergence, 336 h, ECHCG: barnyardgrass (Echinochloa crus-galli), application rate 70 g ai/ha, read-out: Visual Growth Reduction (%) 14 Days After Application, ECHCG

Compound | pest or weed control at 70 g/ha [%]
COC(=O)c1nc(-c2ccc(Br)cc2)c(Cl)c(N)c1Cl [Compound 47] | 85 to 94

Same assay, conditions: post-emergence, 336 h, ECHCG: barnyardgrass (Echinochloa crus-galli), application rate 140 g ai/ha, read-out: Visual Growth Reduction (%) 14 Days After Application, ECHCG

Compound | pest or weed control at 140 g/ha [%]
COC(=O)c1nc(-c2ccc(Br)cc2)c(Cl)c(N)c1Cl [Compound 47] | 85 to 94

Same assay, conditions: post-emergence, 336 h, ORYSA: rice (Oryza sativa), application rate 70 g ai/ha, read-out: Visual Growth Reduction (%) 14 Days After Application, ORYSA

Compound | pest or weed control at 70 g/ha [%]
COC(=O)c1nc(-c2ccc(Br)cc2)c(Cl)c(N)c1Cl [Compound 47] | 0 to 29

Same assay, conditions: post-emergence, 336 h, ORYSA: rice (Oryza sativa), application rate 140 g ai/ha, read-out: Visual Growth Reduction (%) 14 Days After Application, ORYSA

Compound | pest or weed control at 140 g/ha [%]
COC(=O)c1nc(-c2ccc(Br)cc2)c(Cl)c(N)c1Cl [Compound 47] | 0 to 29

Same assay, conditions: post-emergence, 336 h, SETFA: giant foxtail (Setaria faberi), application rate 70 g ai/ha, read-out: Visual Growth Reduction (%) 14 Days After Application, SETFA

Compound | pest or weed control at 70 g/ha [%]
COC(=O)c1nc(-c2ccc(Br)cc2)c(Cl)c(N)c1Cl [Compound 47] | 85 to 94

Same assay, conditions: post-emergence, 336 h, SETFA: giant foxtail (Setaria faberi), application rate 140 g ai/ha, read-out: Visual Growth Reduction (%) 14 Days After Application, SETFA

Compound | pest or weed control at 140 g/ha [%]
COC(=O)c1nc(-c2ccc(Br)cc2)c(Cl)c(N)c1Cl [Compound 47] | 95 to 100

Same assay, conditions: post-emergence, 336 h, SORVU: grain sorghum (Sorghum vulgare), application rate 70 g ai/ha, read-out: Visual Growth Reduction (%) 14 Days After Application, SORVU

Compound | pest or weed control at 70 g/ha [%]
COC(=O)c1nc(-c2ccc(Br)cc2)c(Cl)c(N)c1Cl [Compound 47] | 85 to 94

Same assay, conditions: post-emergence, 336 h, SORVU: grain sorghum (Sorghum vulgare), application rate 140 g ai/ha, read-out: Visual Growth Reduction (%) 14 Days After Application, SORVU

Compound | pest or weed control at 140 g/ha [%]
COC(=O)c1nc(-c2ccc(Br)cc2)c(Cl)c(N)c1Cl [Compound 47] | 85 to 94

Same assay, conditions: post-emergence, 336 h, ZEAMX: maize, corn (Zea mays), application rate 70 g ai/ha, read-out: Visual Growth Reduction (%) 14 Days After Application, ZEAMX

Compound | pest or weed control at 70 g/ha [%]
COC(=O)c1nc(-c2ccc(Br)cc2)c(Cl)c(N)c1Cl [Compound 47] | 85 to 94

Same assay, conditions: post-emergence, 336 h, ZEAMX: maize, corn (Zea mays), application rate 140 g ai/ha, read-out: Visual Growth Reduction (%) 14 Days After Application, ZEAMX

Compound | pest or weed control at 140 g/ha [%]
COC(=O)c1nc(-c2ccc(Br)cc2)c(Cl)c(N)c1Cl [Compound 47] | 85 to 94
